Assay results from patent US9687459B2, “Aminocyclobutane derivatives, method for preparing same and the use thereof as drugs” (priority 2012, dated 2017).
“And” between values parts separate entries of the source, which are not always exact repeats. Equal values may be shown once. Read-outs that look alike come from different tables or passages of the source.

What was measured:
[1] = biological target: T1, recombinant human NMDA receptors constructed from NR1 and NR2B sub-units (Homo sapiens, UniProt Q05586+Q13224); experiment: Inhibition of NMDA current in Xenopus ovocytes, two electrode voltage clamp; assay type: cell-based
T1 construct: expressed in transfected cells; host or cells: Xenopus laevis oocytes injected with cRNA transcribed from pGEMHE constructs
T1 sequence (Q13224 27-1484, other chains not shown): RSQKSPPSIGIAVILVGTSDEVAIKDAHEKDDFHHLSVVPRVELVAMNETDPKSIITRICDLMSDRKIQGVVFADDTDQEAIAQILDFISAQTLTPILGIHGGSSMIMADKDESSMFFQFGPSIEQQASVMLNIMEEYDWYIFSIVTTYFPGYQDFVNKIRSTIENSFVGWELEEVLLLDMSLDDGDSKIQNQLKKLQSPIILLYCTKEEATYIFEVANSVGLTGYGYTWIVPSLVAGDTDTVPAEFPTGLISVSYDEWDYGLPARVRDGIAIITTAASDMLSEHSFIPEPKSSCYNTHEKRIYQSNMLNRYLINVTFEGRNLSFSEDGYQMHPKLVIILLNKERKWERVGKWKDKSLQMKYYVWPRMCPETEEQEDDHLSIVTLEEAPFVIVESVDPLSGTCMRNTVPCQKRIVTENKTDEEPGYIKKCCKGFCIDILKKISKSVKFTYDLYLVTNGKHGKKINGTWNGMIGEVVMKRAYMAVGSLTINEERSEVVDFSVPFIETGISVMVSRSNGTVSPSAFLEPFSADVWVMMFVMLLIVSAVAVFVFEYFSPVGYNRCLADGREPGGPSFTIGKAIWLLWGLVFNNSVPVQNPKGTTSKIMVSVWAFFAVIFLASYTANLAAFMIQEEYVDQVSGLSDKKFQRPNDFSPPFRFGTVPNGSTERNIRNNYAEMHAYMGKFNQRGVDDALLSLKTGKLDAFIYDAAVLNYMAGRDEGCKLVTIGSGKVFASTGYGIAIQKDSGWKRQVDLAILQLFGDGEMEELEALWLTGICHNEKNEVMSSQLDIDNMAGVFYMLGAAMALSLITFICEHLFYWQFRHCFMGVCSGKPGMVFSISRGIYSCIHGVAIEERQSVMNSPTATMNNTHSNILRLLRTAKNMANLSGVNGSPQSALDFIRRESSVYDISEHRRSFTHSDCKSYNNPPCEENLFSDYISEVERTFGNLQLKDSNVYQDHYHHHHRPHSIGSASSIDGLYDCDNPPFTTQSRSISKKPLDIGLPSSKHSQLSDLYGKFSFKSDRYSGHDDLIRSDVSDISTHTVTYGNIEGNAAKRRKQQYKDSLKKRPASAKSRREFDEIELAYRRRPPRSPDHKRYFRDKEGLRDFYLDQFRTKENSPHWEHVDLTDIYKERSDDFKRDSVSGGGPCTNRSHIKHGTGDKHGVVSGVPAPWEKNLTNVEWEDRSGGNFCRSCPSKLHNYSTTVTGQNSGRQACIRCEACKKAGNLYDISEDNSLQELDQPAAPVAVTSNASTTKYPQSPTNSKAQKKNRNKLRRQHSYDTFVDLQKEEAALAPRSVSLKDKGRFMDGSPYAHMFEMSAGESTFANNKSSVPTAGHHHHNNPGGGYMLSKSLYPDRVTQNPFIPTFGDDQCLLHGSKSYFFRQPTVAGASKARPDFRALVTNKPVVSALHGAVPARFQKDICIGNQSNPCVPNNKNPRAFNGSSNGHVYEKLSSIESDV
Source text: We examined the effects of the compounds of the invention on inhibition of the NMDA current in Xenope (Xenopus laevis) expressing recombinant human NMDA receptors constructed from NR1 and NR2B sub-units. The currents produced by stimulation of these receptors by means of endogenous agonists were studied according to the two electrode voltage clamp technique reported by Planells-Cases et al., 2002, J. Pharmacol. Exp. Ther., 302, 163-173.
Protocol: ovocytes were surgically removed from adults xenopes, enzymatically defolliculated and stored at 17° C. in a solution containing: 96 mM of NaCl, 2 mM of KCl, 1 mM of MgCl2, 1.8 mM of CaCl2 and 5 mM of HEPES at pH 7.5 (NaOH) and 50 mg/L of gentamycin (Heusler et al., 2005, Neuropharmacology, 49, 963-976). Complementary DNA (cDNA) coding for the NR1 sub-unit was cloned by PCR using primers targeted for start and end codons in the published sequence (Genebank access number M_007327). cDNA coding for the NR2B sub-unit was synthesised by Eurogentec (Seraing, Belgium) according to the published sequence (gene bank access number NM_000834). The NR1 and NR2B cDNA was then sub-cloned in the pGEMHE high expression carrier for in vitro transcription of cDNA. cRNA coding for NR1 and NR2B was prepared according to the method described by Heusler et al. (already cited). Aliquots of the cRNA solution were injected into the ovocytes ([…] for NR1 and 40-1000 pg/ovocyte for NR2B). Each ovocyte was injected with 100 nL of a solution containing: 4 mM of Na^+BAPTA (pH 7.2) in order to block all residual chlorine currents. After stabilisation, NMDA currents were activated by superfusion of glutamate and glycine each at a concentration of 10 μM. The compounds to be tested were then superfused in a Ringer Ba^++ solution at increasing concentrations in the presence of glutamate and glycine (4 to 5 concentrations were tested per ovocyte). The concentration-response codes obtained are analysed for each ovocyte by non-linear regression and a pIC50 value was calculated. pIC50 designates the negative logarithm of the compound concentration tested needed to reduce the amplitude of the NMDA current by half.

[2] = test system: forced swimming model in the rat; experiment: Forced swimming test, immobility time; assay type: in vivo; conditions: for Immobility time % reduction at 20 mg/kg: 20 mg/kg ip; for ED50: ip 30 min before test, dose reducing immobility time by half relative to controls
Description: This height allows the rats to swim or to float without their paws touching the base of the cylinder. 24 hours before the test day, the rats are placed in the cylinder for 15 min, after which time they no longer attempt to escape and remain immobile at the surface. On the test day, the compound to be tested or the carrier is injected (ip) into the animal which is placed in the cylinder 30 min later. The duration of immobility (defined when the rat simply floats and only makes small movements to stay at the surface) is measured with an accuracy of 0.1 s for 5 minutes.

[3] = test system: acute inflammatory pain model in the rat; conditions: for Paw licking % reduction at 40 mg/kg / Paw licking inhibition at 40 mg/kg (in words): 40 mg/kg ip, late phase; for Paw licking MSD (minimum significant dose): ip 15 min before formaldehyde, late phase 22.5-27.5 min
[4] = test system: pre-pulse inhibition of the jolt reflex in the rat; experiment: Pre-pulse inhibition test for the jolt reflex (PPI); assay type: in vivo; conditions: FIG. 1
Source text: We have already highlighted the importance of normalising the NMDA receptor function, in other words blocking its excessive activity without interfering, or interfering as little as possible, with its normal physiological functioning. As a marker of the interaction between the products of the invention and the normal functioning of the NMDA receptors, we chose the pre-pulse inhibition test for the jolt reflex (PPI). This test represents a measurement of the organism's capacity to filter non-essential information. Non-competitive and competitive antagonists as well as channel blockers reduce PPI in the rat (Depoortere et al., 1999, Behav. Pharmacol., 10, 51-62), such a reduction being considered to be predictive of the psychotomimetic effects of NMDA antagonists in humans.
Protocol: Male rats (Sprague-Dawley Iffa Credo, Les Oncins, France) were placed in 18.4 cm by 8.8 cm diameter cylinders resting on a base below which a piezoelectric accelerometer is fixed to act as a detector of the jolt reaction. This is enclosed in a box with a loudspeaker attached to the ceiling to deliver sound pulses and pre-pulses, and is acoustically isolated (SR LAB, San Diego Instruments, San Diego, USA). All the events are controlled by means of software. […] Three types of sound stimuli (white noise) are delivered; 1) a pulse of 118 dB (P, duration 40 msec); 2) a pre-pulse of 78 dB (duration 20 msec) followed by a pulse of 118 dB (pP); and 3) no pre-pulse or pulse (NP). The interval between the beginning of the pre-pulse and the beginning of the pulse is 100 msec, with background noise at 70 dB. The jolt reaction is recorded for 100 ms, 100 ms after the beginning of the stimulus (pP or NP) by a numerical/analogue acquisition card (12 bits). The session starts with a stimulus-free period of 5 min after which animals are exposed to 10 P (separated on average by 15 s and intended to stabilise the jolt reaction). The reactions recorded with these 10 P are not used for the calculation. After this, 10 P, 10 pP and 3 NP are delivered in a semi-random order with an average interval of 15 s in between. At the end of this pre-test, rats undergo an ip injection of the compounds to be tested or physiological serum as a control and are returned to their cages. The actual test session (similar on every point to the pre-test) is carried out 60 minutes later. The percentage inhibition of the pre-pulse is calculated using data from this test session according to the formula: (median amplitude P−median amplitude pP)×100/(median amplitude P).

[5] = ovocytes expressing human NR1/NR2B, glutamate and glycine each 10 μM, read-out: Inhibition of NMDA current pIC50 (converted)

Row | Structure (SMILES) | IC50 [1, 5] | Immobility time % reduction at 20 mg/kg [2] | ED50 [2] | IC50 [1] | Paw licking % reduction at 40 mg/kg [3] | Paw licking inhibition at 40 mg/kg (in words) [3] | Paw licking MSD (minimum significant dose) [3] | also measured
1 | CCN(CC)C(=O)[C@]1(c2cccc(OC)c2)C[C@@H](N)C1 [Compound 1d, trans-3-amino-N,N-diethyl-1-(3-methoxyphenyl)-cyclobutanecarboxamide] | 398 nM |  |  |  |  |  |  | 
2 | CCN(CC)C(=O)[C@]1(c2cccc(F)c2)C[C@@H](N)C1 [Compound 1c, trans-3-amino-N,N-diethyl-1-(3-fluorophenyl)-cyclobutanecarboxamide] | 158 nM | 83% | 13 mg/kg |  |  |  |  | 
3 | CCN(CC)C(=O)[C@]1(c2cccc(Cl)c2)C[C@@H](N)C1 [Compound 1e, trans-3-amino-N,N-diethyl-1-(3-chlorophenyl)-cyclobutanecarboxamide] |  | 77% | 15 mg/kg | 79.4 nM | 100% | completely inhibited | 10 mg/kg | 
4 | CCN(CC)C(=O)[C@]1(c2ccccc2F)C[C@@H](N)C1 [Compound 1b, trans-3-amino-N,N-diethyl-1-(2-fluorophenyl)-cyclobutanecarboxamide] | 501 nM |  |  |  |  |  |  | 
5 | CNC1(c2ccccc2Cl)CCCCC1=O (stereo not drawn) [ketamine, reference compound] |  | 50% | 20 mg/kg | 794 nM |  |  | 40 mg/kg | Effect on PPI at 20 mg/kg (in words) ([4]; 20 mg/kg ip): total disappearance of PPI; Paw licking % reduction at 40 mg/kg ([3]; 40 mg/kg): 74% and 75%
6 | CCN(CC)C(=O)[C@]1(c2ccccc2)C[C@@H](N)C1 [Compound 1a1, trans-3-amino-N,N-diethyl-1-phenylcyclobutanecarboxamide] | 501 nM |  |  |  | 100% | completely inhibited | 10 mg/kg | Reduction in PPI at 20 mg/kg ([4]; 20 mg/kg ip, test 60 min after injection): 30%; PPI reduction at 40 mg/kg (in words) ([4]; 40 mg/kg): modest; Dose from which PPI is disrupted ([4]; ip): ≥ 20 mg/kg
